Legend:
[1] = target: T1, Progesterone receptor (Oryctolagus cuniculus) (UniProt P06186); test: Percent inhibition of [3H]- progesterone binding to rabbit uterine progesterone receptor, at 10e-5 M compound concentration; settings: at 10 µM
T1 sequence (whole entry): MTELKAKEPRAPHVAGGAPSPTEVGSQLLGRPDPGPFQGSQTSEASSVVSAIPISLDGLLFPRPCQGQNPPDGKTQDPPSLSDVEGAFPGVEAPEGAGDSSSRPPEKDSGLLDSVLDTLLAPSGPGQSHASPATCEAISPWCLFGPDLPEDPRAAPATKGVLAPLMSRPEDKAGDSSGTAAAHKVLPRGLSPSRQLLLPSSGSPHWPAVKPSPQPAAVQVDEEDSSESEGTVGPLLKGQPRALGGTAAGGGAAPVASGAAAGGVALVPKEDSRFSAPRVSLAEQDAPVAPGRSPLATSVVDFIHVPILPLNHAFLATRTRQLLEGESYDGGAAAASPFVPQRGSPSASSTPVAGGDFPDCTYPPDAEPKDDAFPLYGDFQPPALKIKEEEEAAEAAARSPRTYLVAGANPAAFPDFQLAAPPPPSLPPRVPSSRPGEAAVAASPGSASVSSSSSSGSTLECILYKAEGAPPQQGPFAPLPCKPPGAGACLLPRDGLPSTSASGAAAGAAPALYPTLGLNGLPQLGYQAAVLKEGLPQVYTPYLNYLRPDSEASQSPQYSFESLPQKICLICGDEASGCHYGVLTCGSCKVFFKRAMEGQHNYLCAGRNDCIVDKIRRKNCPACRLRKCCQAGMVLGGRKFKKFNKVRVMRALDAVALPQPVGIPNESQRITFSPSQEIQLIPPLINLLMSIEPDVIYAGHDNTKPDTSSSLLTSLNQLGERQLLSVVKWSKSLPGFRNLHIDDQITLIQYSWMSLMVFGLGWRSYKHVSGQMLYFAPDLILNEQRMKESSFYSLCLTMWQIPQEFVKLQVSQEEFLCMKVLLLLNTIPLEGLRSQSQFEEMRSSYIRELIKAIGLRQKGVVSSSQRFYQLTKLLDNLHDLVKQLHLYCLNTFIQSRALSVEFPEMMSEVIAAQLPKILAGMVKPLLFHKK

[2] = target: T1, Progesterone receptor (Oryctolagus cuniculus); test: Percent inhibition of [3H]- progesterone binding to rabbit uterine progesterone receptor, at 10e-6 M compound concentration; settings: at 1 µM
[3] = target: T1, Progesterone receptor (Oryctolagus cuniculus); test: Percent inhibition of [3H]- progesterone binding to rabbit uterine progesterone receptor, at 10e-8 M compound concentration; settings: at 0.01 µM
[4] = target: T1, Progesterone receptor (Oryctolagus cuniculus); test: Percent inhibition of [3H]- progesterone binding to rabbit uterine progesterone receptor, at 10e-9 M compound concentration; settings: at 0.001 µM
[5] = target: T1, Progesterone receptor (Oryctolagus cuniculus); test: Percent inhibition of [3H]- progesterone binding to rabbit uterine progesterone receptor, at 10e-7 M compound concentration; settings: at 0.1 µM
Cricetinae gen. sp. [6] = test: Activity against pregnancy-interceptive activity in Syrian golden hamsters, when administered, at a dose of 5.54 mmol/kg; assay type: functional
[7] = tested on: Progesterone receptor (Mesocricetus auratus); test: Percent inhibition of [3H]- progesterone binding to Syrian golden hamster uterine cytosol progesterone receptor, at 10e-5 M compound concentration; settings: at 10 µM
[8] = tested on: Progesterone receptor (Mesocricetus auratus); test: Percent inhibition of [3H]- progesterone binding to Syrian golden hamster uterine cytosol progesterone receptor, at 10e-7 M compound concentration; settings: at 0.1 µM
[9] = tested on: Progesterone receptor (Mesocricetus auratus); test: Percent inhibition of [3H]- progesterone binding to Syrian golden hamster uterine cytosol progesterone receptor, at 10e-8 M compound concentration; settings: at 0.01 µM
[10] = tested on: Progesterone receptor (Mesocricetus auratus); test: Percent inhibition of [3H]- progesterone binding to Syrian golden hamster uterine cytosol progesterone receptor, at 10e-9 M compound concentration; settings: at 0.001 µM
[11] = tested on: Progesterone receptor (Mesocricetus auratus); test: Percent inhibition of [3H]- progesterone binding to Syrian golden hamster uterine cytosol progesterone receptor, at 10e-6 M compound concentration; settings: at 1 µM
Cricetinae gen. sp. [12] = test: Activity against pregnancy-interceptive activity in Syrian golden hamsters, when administered, at a dose of 6.36 mmol/kg; assay type: functional, Cricetulus griseus
[13] = target: T1, Progesterone receptor (Oryctolagus cuniculus); test: Percent inhibition of [3H]- progesterone binding to rabbit uterine progesterone receptor at 10e-7 M
Cricetinae gen. sp. [14] = test: Activity against pregnancy-interceptive activity in Syrian golden hamsters, when administered, at a dose of 7.83 mmol/kg; assay type: functional
Cricetinae gen. sp. [15] = test: Activity against pregnancy-interceptive activity in Syrian golden hamsters, when administered, at a dose of 6.96 mmol/kg; assay type: functional
Cricetinae gen. sp. [16] = test: Activity against pregnancy-interceptive activity in Syrian golden hamsters, when administered, at a dose of 4.95 mmol/kg; assay type: functional
Cricetinae gen. sp. [17] = test: Activity against pregnancy-interceptive activity in Syrian golden hamsters, when administered, at a dose of 8.82 mmol/kg; assay type: functional
Cricetinae gen. sp. [18] = test: Activity against pregnancy-interceptive activity in Syrian golden hamsters, when administered, at a dose of 6.98 mmol/kg; assay type: functional
Cricetinae gen. sp. [19] = test: Activity against pregnancy-interceptive activity in Syrian golden hamsters, when administered, at a dose of 8.35 mmol/kg; assay type: functional, Cricetulus griseus
Cricetinae gen. sp. [20] = test: Activity against pregnancy-interceptive activity in Syrian golden hamsters, when administered, at a dose of 13.15 mmol/kg; assay type: functional
Cricetinae gen. sp. [21] = test: Activity against pregnancy-interceptive activity in Syrian golden hamsters, when administered, at a dose of 6.66 mmol/kg; assay type: functional
Cricetinae gen. sp. [22] = test: Activity against pregnancy-interceptive activity in Syrian golden hamsters, when administered, at a dose of 6.70 mmol/kg; assay type: functional
Cricetinae gen. sp. [23] = test: Activity against pregnancy-interceptive activity in Syrian golden hamsters, when administered, at a dose of 19.43 mmol/kg; assay type: functional
Cricetinae gen. sp. [24] = test: Activity against pregnancy-interceptive activity in Syrian golden hamsters, when administered, at a dose of 15.11 mmol/kg; assay type: functional
Cricetinae gen. sp. [25] = test: Activity against pregnancy-interceptive activity in Syrian golden hamsters, when administered, at a dose of 15.20 mmol/kg; assay type: functional
Cricetinae gen. sp. [26] = test: Activity against pregnancy-interceptive activity in Syrian golden hamsters, when administered, at a dose of 14.62 mmol/kg; assay type: functional
Cricetinae gen. sp. [27] = test: Activity against pregnancy-interceptive activity in Syrian golden hamsters, when administered, at a dose of 5.64 mmol/kg; assay type: functional
Cricetinae gen. sp. [28] = test: Activity against pregnancy-interceptive activity in Syrian golden hamsters, when administered, at a dose of 12.08 mmol/kg; assay type: functional

Compound | inhibition [1] | inhibition [2] | inhibition [3] | inhibition [4] | inhibition [5] | inhibition [7] | inhibition [8] | inhibition [9] | inhibition [10] | inhibition [11] | further results
COC(=O)C1=C(C)N=C(C)/C(=C(/O)OC)C1c1ccc(NCc2ccccc2)c([N+](=O)[O-])c1 (centres undefined) | 12% | 10% | 10% | 0% | 0% | 10% | 4% | 0% | 0% | 6% | Activity (Cricetinae gen. sp. [6]): 2.5
COC(=O)C1=C(C)N=C(C)/C(=C(/O)OC)C1c1cc2ccccc2n2nnnc12 (centres undefined) | 14% | 8% | 10% | 0% | 12% | 10% | 10% | 8% | 0% | 9% | Activity (Cricetinae gen. sp. [12]): 2.5
COC(=O)C1=C(C)N=C(C)/C(=C(\O)OC)C1c1cc(C(=O)c2ccc(C)cc2)c(OC)cc1OC (centres undefined) | 23% | 18% | 11% | 10% |  | 18% | 15% | 12% | 8% | 15% | inhibition [13]: 15%; Activity (Cricetinae gen. sp. [14]): 6
COC(=O)C1=C(C)N=C(C)/C(=C(\O)OC)C1c1ccc(C(=O)OC)cc1 (centres undefined) | 25% | 15% | 0% | 0% |  | 40% | 27% | 10% | 10% | 32% | inhibition [13]: 20%; Activity (Cricetinae gen. sp. [15]): 0.72
COC(=O)C1=C(C)N=C(C)/C(=C(/O)OC)C1c1ccc2nc(-c3ccccc3)c(-c3ccccc3)nc2c1 (centres undefined) | 16% | 18% | 2% | 2% | 10% | 18% | 12% | 9% | 6% | 15% | Activity (Cricetinae gen. sp. [16]): 4.6
COC(=O)C1=C(C)N=C(C)/C(=C(/O)OC)C1c1ccc2nc(-c3ccc(OC)cc3)n(Cc3ccc(OC)cc3)c2c1 (centres undefined) | 20% | 16% | 6% | 2% | 10% | 24% | 15% | 12% | 10% | 20% | Activity (Cricetinae gen. sp. [17]): 6
COC(=O)C1=C(C)N=C(C)/C(=C(\O)OC)C1c1ccc(NC(C)=O)cc1 (centres undefined) | 15% | 18% |  |  |  |  |  |  |  |  | Activity (Cricetinae gen. sp. [18]): 0.66
COC(=O)C1=C(C)N=C(C)/C(=C(/O)OC)C1c1ccc2nc(-c3ccc(O)c(OC)c3)n(Cc3ccc(O)c(OC)c3)c2c1 (centres undefined) | 20% | 15% | 8% | 5% | 15% | 18% | 12% | 5% | 3% | 18% | Activity (Cricetinae gen. sp. [19]): 1.2
COC(=O)C1=C(C)N=C(C)/C(=C(/O)OC)C1c1ccc(Cl)c([N+](=O)[O-])c1 (centres undefined) | 18% | 10% | 0% | 0% | 5% | 24% | 10% | 5% | 2% | 14% | Activity (Cricetinae gen. sp. [20]): 2.6
CNc1ccc(C2C(C(=O)OC)=C(C)N=C(C)/C2=C(/O)OC)cc1[N+](=O)[O-] (centres undefined) | 14% | 10% | 8% | 5% | 10% | 12% | 10% | 4% | 4% | 13% | Activity (Cricetinae gen. sp. [21]): 6.8
COC(=O)C1=C(C)N=C(C)/C(=C(/O)OC)C1c1ccc2[nH]c(S)nc2c1 (centres undefined) | 20% | 18% | 10% | 0% | 15% | 30% | 18% | 10% | 9% | 26% | Activity (Cricetinae gen. sp. [22]): 5
COC(=O)C1=C(C)N=C(C)/C(=C(/O)OC)C1c1cc2ccccc2nc1Cl (centres undefined) | 17% | 16% | 11% | 8% | 10% | 14% | 11% | 10% | 6% | 14% | Activity (Cricetinae gen. sp. [23]): 3
COC(=O)C1=C(C)N=C(C)/C(=C(/O)OC)C1c1ccc(N)c(N)c1 (centres undefined) | 21% | 15% | 10% | 13% | 16% | 18% | 9% | 0% | 0% | 14% | Activity (Cricetinae gen. sp. [24]): 2.3
COC(=O)C1=C(C)N=C(C)/C(=C(/O)OC)C1c1ccc(C=O)cc1 (centres undefined) | 15% | 10% | 4% | 3% | 8% | 12% | 5% | 9% | 0% | 10% | Activity (Cricetinae gen. sp. [25]): 5.15
COC(=O)C1=C(C)N=C(C)/C(=C(/O)OC)C1c1ccc2[nH]nnc2c1 (centres undefined) | 22% | 20% | 8% | 10% | 12% | 26% | 16% | 12% | 9% | 18% | Activity (Cricetinae gen. sp. [26]): 5.2
COC(=O)C1=C(C)N=C(C)/C(=C(/O)OC)C1c1ccc2nc3n(c2c1)C(=O)c1ccccc1-3 (centres undefined) | 15% | 15% | 0% | 0% | 0% | 16% | 8% | 9% | 6% | 10% | Activity (Cricetinae gen. sp. [27]): 3.8
COC(=O)Nc1nc2cc(C3C(C(=O)OC)=C(C)N=C(C)/C3=C(/O)OC)ccc2[nH]1 (centres undefined) | 20% | 16% | 5% | 5% | 16% | 28% | 16% | 10% | 0% | 15% | Activity (Cricetinae gen. sp. [28]): 1.5
